Experimental data published in patent US7101878B1 (Agouron Pharmaceuticals, Inc., priority 1998, dated 2006).

What was measured:
[1] = target: T1, human GnRH receptor (Homo sapiens, UniProt P30968); experiment: Radioligand binding, 125I-GnRH-A displacement, membranes of HEK 293 cells with human GnRH receptor; details: read-out: hGnRH IC50
T1 construct: expressed in transfected cells; host or cells: HEK 293 (hGnRH-R/293, from Dr. Stuart Sealfon)
T1 sequence (P30968 1-328): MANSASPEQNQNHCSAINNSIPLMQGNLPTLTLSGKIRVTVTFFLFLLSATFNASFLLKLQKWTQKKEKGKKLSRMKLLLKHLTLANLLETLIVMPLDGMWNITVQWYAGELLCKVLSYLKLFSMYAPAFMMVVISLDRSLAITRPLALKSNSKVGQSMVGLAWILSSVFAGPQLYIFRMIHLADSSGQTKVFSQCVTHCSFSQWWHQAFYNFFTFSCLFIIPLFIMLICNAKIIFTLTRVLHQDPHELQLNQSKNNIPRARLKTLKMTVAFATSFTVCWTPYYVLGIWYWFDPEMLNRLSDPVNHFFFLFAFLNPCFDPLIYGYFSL
Method in brief: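 After filtration and PBS washes, bound radioactivity was counted by scintillation and IC50 derived. Identical conditions applied for non-human receptors.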

[2] = Metabolism rate, pmol/min/mg at 1 μM, human; assay type: in vitro ADME; details: 1 μM compound
[3] = Metabolism rate, pmol/min/mg at 1 μM, rat male; assay type: in vitro ADME; details: 1 μM compound
[4] = target: T2, mouse GnRH receptor (Mus musculus, UniProt Q01776); experiment: Radioligand binding, 125I-GnRH-A, 293 cells expressing mouse GnRH receptors; details: read-out: mGnRH IC50
T2 construct: expressed in transfected cells; host or cells: 293 cells
T2 sequence (Q01776 1-327): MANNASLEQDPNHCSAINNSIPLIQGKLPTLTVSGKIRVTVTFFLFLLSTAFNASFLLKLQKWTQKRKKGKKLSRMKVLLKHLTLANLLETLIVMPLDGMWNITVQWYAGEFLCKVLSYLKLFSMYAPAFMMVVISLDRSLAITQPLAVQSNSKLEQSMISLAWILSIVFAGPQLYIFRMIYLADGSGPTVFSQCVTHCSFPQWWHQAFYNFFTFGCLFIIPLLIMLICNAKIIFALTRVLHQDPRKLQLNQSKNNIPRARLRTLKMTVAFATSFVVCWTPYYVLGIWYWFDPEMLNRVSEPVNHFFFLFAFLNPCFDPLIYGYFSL
Method in brief: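 Bound label captured on 0.1% polyethyleneimine-treated GF/C filters, washed three times with PBS, counted. IC50 derived; identical set-up for every species.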

[5] = target: T3, rat GnRH receptor (Rattus norvegicus, UniProt P30969); experiment: Radioligand binding, 125I-GnRH-A, rat pituitary membranes; set-up: membranes were prepared from rat pituitary; from tissue; host or cells: rat pituitary; details: read-out: rGnRH IC50
T3 sequence (P30969 1-327): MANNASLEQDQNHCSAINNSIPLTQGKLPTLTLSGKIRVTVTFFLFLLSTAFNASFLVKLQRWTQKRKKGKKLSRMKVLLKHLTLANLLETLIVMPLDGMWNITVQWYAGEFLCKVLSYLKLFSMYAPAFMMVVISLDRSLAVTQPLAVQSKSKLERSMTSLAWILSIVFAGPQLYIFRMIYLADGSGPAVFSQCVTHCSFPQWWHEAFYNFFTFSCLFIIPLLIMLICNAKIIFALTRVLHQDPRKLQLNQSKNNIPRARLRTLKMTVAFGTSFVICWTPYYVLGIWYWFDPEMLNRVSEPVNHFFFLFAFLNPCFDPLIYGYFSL
Procedure: All compounds were diluted in 1% DMSO (final assay concentration) in binding assay buffer. […] Reactions were terminated by rapid filtration onto 96-well Packard GF/C filters soaked in 0.1% polyethyleneimine. Filters were washed three times with PBS buffer, dried and counted on a Packard Topcount by liquid scintillation counting.
Assay conditions were identical for assessing compound activities at other species. […] IC50 values for control peptides and test compounds were calculated utilizing GraphPad Prism™ software.
The reaction mixture was vortexed and incubated for 1 min at room temperature. After one min, the mixture was vortexed and allowed to incubate for an additional minute. 2 ml of 0.5 M acetic acid/1% BSA was added to the reaction tube and the mixture was added to a C18 Sep-Pak cartridge. The cartridge was washed with subsequent washes of 5 ml H2O and 5 ml 0.5M acetic acid and then eluted with 5×1 ml of 60% CH3CN/40% 0.5M acetic acid. The eluate was diluted with 3× volume of HPLC buffer A (0.1% TFA in H2O) and loaded onto a C18 column. […] The radioactive fractions (750 ed/fraction) are collected into clean polypropylene tubes containing 100 μl of 10% BSA. Fractions were assessed for biological activity by radioligand binding.

[6] = Pharmacokinetic studies / bioavailability in rats; assay type: in vivo, rat; details: rat female
[7] = system: LH levels in castrated rats; experiment: Castrated male rat model, LH suppression; assay type: in vivo
Source text: Experimental Protocol: Male Sprague-Dawley (225-250 g) rats were castrated and allowed 10 days postoperative recovery. Ten days post castration animals were instrumented with indwelling femoral venous and arterial catheters to facilitate remote infusions and blood sampling. On the day of the experiment, animals were allowed to acclimate to the procedure room while residing in their home cage. Basal blood samples were drawn from all animals. Following basal sampling, either vehicle (10% DMSO, 10% cremophor/saline), Antide (1.0 μg) or compound 11 (10 mg/kg) was administered intravenously. Blood samples were drawn 10, 60, 90, 120, 180, 240 minutes after injections. Blood was centrifuged, serum collected and stored in −70° freezer until assayed. Serum samples were analyzed using DSL-4600 ACTIVE LH coated-tube immunoradiometric assay kit from Diagnostic Systems Laboratories, Inc.
Surgical removal of the gonads removes circulating testosterone and eliminates the negative feedback of testosterone on the hypothalamus. […] This model seems suitable for evaluating small molecule GnRH antagonists.
Male Sprague-Dawley ([…]) rats were castrated via the scrotal approach under halothane anesthesia. Animals were allowed 14 days post operative recovery prior to study. Thirteen days following castration, animals were anesthetized with halothane and instrumented with indwelling jugular vein cannula. Details of the cannulation procedure have been described previously {Harms and Ojeda, 1974)}. On study day, animals were allowed to acclimate to the procedure room while residing in their home cage. Basal blood samples were drawn from all animals. Immediately following basal sampling, vehicle or test compounds were administered by various routes. The routes of administration employed were intravenous (iv), intramuscular (im), intraperitoneal (ip), subcutaneous (sc) and oral (po). Blood samples were drawn into heparin containing tubes at multiple time points post treatment. Blood was centrifuged immediately, plasma collected and stored in −20° freezer until assayed. Plasma samples were analyzed using DSL-4600 ACTIVE LH coated-tube immunoradiometric assay kit from Diagnostic Systems Laboratories, Inc.
Formulation #1 (denoted with superscript 1): 10% DMSO, 10% Cremophor EL and 80% physiological saline.
Formulation #2 (denoted with superscript 2): 10% Cremophor EL and 90% physiological saline.

[8] = female, rat, plasma, po, 10 mg/kg, p.o. 10 mg/kg, 5 mg/ml solution in 10% DMSO 10% cremophor 80% saline

Row | SMILES | IC50 [1] [nM] | Human pmol/min/mg 1 μM [2] [pmol/min/mg] | Rat male pmol/min/mg 1 μM [3] [pmol/min/mg] | IC50 [4] [nM] | IC50 [5] [nM] | also measured
1 | Cc1cc2c(cc1Cc1ccc(C(=O)NCC3CCC(CNc4nccc(NCC5CCCO5)n4)CC3)o1)C(C)(C)CCC2(C)C (stereo not drawn) [Compound 92] | 80 | 241 | 1282 | 42 | 27 | –
2 | COc1cccc(OC)c1NC(=O)c1ccc(Cc2c(C)cc(C)cc2C)o1 [Compound 126] | 128 | 544 | – | 684 | 325 | Cmax [6, 8]: 20 nM; Tmax [6, 8]: 30 min; half-life ([6]; female, rat, plasma): 114 min; Fp.o. ([6]; 5 mg/ml solution in 10% DMSO 10% cremophor 80% saline): 2% (10 mg/kg)^10
3 | COCCNc1nccc(NCc2cccc(CNC(=O)c3ccc(Cc4cc5c(cc4C)C(C)(C)CCC5(C)C)o3)c2)n1 [Compound 154] | 150 | 241 | 4481 | 36 | 22 | –
4 | COc1ccc(NC(=O)c2ccc(Cc3cc4c(cc3C)C(C)(C)CCC4(C)C)o2)c(OC)c1 [Compound 99] | 56 | 353 | 2549 | 105 | 108 | –
5 | COC(=O)[C@H]1CC[C@H](CNC(=O)c2ccc(Cc3cc4c(cc3C)C(C)(C)CCC4(C)C)o2)CC1 [Compound 68] | 90 | 2716 | 8125 | 1010 | 890 | –
6 | COc1cc(OC)c(NC(=O)c2ccc(Cc3cc(C)cc4c3OCCC4(C)C)o2)c(OC)c1 [Compound 190.5] | 350 | 1124 | – | – | – | –
7 | Cc1cc2c(cc1Cc1ccc(C(=O)Nc3ccc4[nH]ncc4c3)o1)C(C)(C)CCC2(C)C [Compound 109] | 75 | 130 | 1055 | 140 | 140 | –
8 | Cc1cc2c(cc1Cc1ccc(C(=O)NCc3cccc(CNc4nccc(N5CCOCC5)n4)c3)o1)C(C)(C)CCC2(C)C [Compound 150] | 80 | 655 | 3334 | 13 | 8 | –
9 | Cc1cc2c(cc1Cc1ccc(C(=O)Nc3cccc(B(O)O)c3)o1)C(C)(C)CCC2(C)C [Compound 119] | – | – | – | – | 1300 | % Max LH Suppression ([7]; 5.0 mg/kg iv): 63%; time of % Max LH Suppression ([7]; 5.0 mg/kg iv): 1 h; ≧50% Suppression Duration ([7]; 5.0 mg/kg iv): 1 h; % Max LH Suppression ([7]; 10 mg/kg iv): 61%; time of % Max LH Suppression ([7]; 10 mg/kg iv): 1 h; ≧50% Suppression Duration ([7]; 10 mg/kg iv): 1 h; % Max LH Suppression ([7]; 20 mg/kg ip): 79%; time of % Max LH Suppression ([7]; 20 mg/kg ip): 2 h; ≧50% Suppression Duration ([7]; 20 mg/kg ip): 2 h; % Max LH Suppression ([7]; 20 mg/kg po): 63%; Range of Plasma Conc. ([7]; 20 mg/kg po): 0.1 µM; time of % Max LH Suppression ([7]; 20 mg/kg po): 2 h; ≧50% Suppression Duration ([7]; 20 mg/kg po): 2 h; Range of Plasma Conc. ([7]; 20 mg/kg sc): 0.2 µM

Further compounds by falling IC50 [1], results first:

Row | IC50 [1] [nM] | Human pmol/min/mg 1 μM [2] [pmol/min/mg] | Rat male pmol/min/mg 1 μM [3] [pmol/min/mg] | IC50 [4] [nM] | IC50 [5] [nM] | SMILES | also measured
10 | 45 | 793 | 6642 | 16 | 5 | COc1cc(CO)cc(OC)c1NC(=O)c1ccc(Cc2cc3c(cc2C)C(C)(C)CCC3(C)C)o1 [Compound 159] | –
11 | 40 | 182 | 1692 | 130 | 90 | Cc1cc2c(cc1Cc1ccc(C(=O)Nc3ccc4[nH]ccc4c3)o1)C(C)(C)CCC2(C)C [Compound 96] | –
12 | 31 | 283 | 3356 | 21 | 60 | Cc1cc2c(cc1Cc1ccc(C(=O)NCc3cccc4ccccc34)o1)C(C)(C)CCC2(C)C [Compound 95] | –
13 | 24 | 867 | 2995 | 400 | 270 | Cc1cc2c(cc1Cc1ccc(C(=O)NC[C@H]3CC[C@H](C(N)=O)CC3)o1)C(C)(C)CCC2(C)C [Compound 156] | –
